Results reported in ChEMBL document CHEMBL2074366, “Secretion of sparfloxacin from the human intestinal Caco-2 cell line is altered by P-glycoprotein inhibitors” (Antimicrob Agents Chemother, 1998).

Target: ATP-dependent translocase ABCB1 (Homo sapiens, UniProt P08183)
Test: TP_TRANSPORTER: transepithelial transport (basal to apical) in Caco-2 cells
Type: functional, cell-based

ATP-dependent translocase ABCB1, sequence (P08183 whole entry): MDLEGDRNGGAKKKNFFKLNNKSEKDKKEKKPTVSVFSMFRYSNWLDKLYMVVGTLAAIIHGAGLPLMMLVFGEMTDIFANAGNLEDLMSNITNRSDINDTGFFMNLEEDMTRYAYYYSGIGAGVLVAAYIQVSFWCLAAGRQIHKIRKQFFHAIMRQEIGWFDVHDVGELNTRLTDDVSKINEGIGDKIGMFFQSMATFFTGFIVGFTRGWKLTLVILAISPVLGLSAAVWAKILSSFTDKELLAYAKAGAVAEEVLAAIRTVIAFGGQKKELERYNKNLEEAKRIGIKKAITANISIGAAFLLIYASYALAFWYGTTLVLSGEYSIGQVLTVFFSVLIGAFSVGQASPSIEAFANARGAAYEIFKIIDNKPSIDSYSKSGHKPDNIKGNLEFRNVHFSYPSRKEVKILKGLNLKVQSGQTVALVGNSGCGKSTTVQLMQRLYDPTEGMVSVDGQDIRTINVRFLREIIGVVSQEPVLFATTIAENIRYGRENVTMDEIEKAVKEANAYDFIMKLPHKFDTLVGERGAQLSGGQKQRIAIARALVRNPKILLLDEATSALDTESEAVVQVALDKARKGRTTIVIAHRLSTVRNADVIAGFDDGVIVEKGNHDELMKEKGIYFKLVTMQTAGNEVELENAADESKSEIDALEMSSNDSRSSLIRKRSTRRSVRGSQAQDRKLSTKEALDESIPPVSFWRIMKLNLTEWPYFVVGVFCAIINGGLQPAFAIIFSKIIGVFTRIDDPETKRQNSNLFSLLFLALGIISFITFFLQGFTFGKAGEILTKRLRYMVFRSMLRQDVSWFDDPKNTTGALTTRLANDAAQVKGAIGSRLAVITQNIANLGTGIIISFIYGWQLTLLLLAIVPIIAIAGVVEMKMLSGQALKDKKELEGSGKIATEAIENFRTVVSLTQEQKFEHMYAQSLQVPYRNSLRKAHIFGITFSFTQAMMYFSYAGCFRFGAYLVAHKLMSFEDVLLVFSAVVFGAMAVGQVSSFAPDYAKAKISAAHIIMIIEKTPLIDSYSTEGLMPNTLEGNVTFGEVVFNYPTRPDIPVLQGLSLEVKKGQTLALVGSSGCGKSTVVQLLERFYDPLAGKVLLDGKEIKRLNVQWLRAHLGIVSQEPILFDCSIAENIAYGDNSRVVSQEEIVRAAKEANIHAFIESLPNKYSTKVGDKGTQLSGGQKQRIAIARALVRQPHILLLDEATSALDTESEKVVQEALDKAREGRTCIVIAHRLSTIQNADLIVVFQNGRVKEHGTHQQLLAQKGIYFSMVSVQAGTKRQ

C[C@@H]1CN(c2c(F)c(N)c3c(=O)c(C(=O)O)cn(C4CC4)c3c2F)C[C@H](C)N1 [SPARFLOXACIN]
Activity: substrate [+]
